# Laboratory results reported in ChEMBL document CHEMBL1147359, “Antitumor agents, 138. Rotenoids and isoflavones as cytotoxic constitutents from Amorpha fruticosa” (1993).
# Activity calls are given as the source filed them. No cut-off for these calls is given here.
# Legend:
# [1] = system: TE-671; test: Cytotoxicity against human TE671 cells; type: functional; settings: read-out: ED50 (the source's name)
# [2] = system: P388; test: Cytotoxicity against mouse P388 cells; type: functional; settings: read-out: ED50 (the source's name)
# [3] = system: HCT-8; test: Cytotoxicity against human HCT8 cells; type: functional; settings: read-out: ED50 (the source's name)
# [4] = system: A549; test: Cytotoxicity against human A549 cells at 10 ug/ml; type: functional, cell-based
# [5] = system: RPMI-7951; test: Cytotoxicity against human RPMI7951 cells; type: functional; settings: read-out: ED50 (the source's name)
# [6] = system: KB; test: Cytotoxicity against human KB cells; type: functional; settings: read-out: ED50 (the source's name)
# [7] = system: TE-671; test: Cytotoxicity against human TE671 cells at 10 ug/ml; type: functional, cell-based
# [8] = system: A549; test: Cytotoxicity against human A549 cells; type: functional; settings: read-out: ED50 (the source's name)
# [9] = system: KB; test: Cytotoxicity against human KB cells at 10 ug/ml; type: functional, cell-based
# [10] = system: RPMI-7951; test: Cytotoxicity against human RPMI7951 cells at 10 ug/ml; type: functional, cell-based
# [11] = system: P388; test: Cytotoxicity against mouse P388 cells at 10 ug/ml; type: functional, cell-based
# [12] = system: HCT-8; test: Cytotoxicity against human HCT8 cells at 10 ug/ml; type: functional, cell-based
SMILES,EC50 [1] [µg/mL],EC50 [2] [µg/mL],EC50 [3] [µg/mL],ED50 [4],EC50 [5] [µg/mL],EC50 [6] [µg/mL],ED50 [7],EC50 [8] [µg/mL],ED50 [9],ED50 [10],ED50 [11],ED50 [12]
COc1cc2c(cc1OC)[C@@H]1C(=O)c3ccc4c(c3O[C@@H]1CO2)C[C@H](C(C)(C)O[C@@H]1O[C@H](CO)[C@@H](O)[C@H](O)[C@H]1O)O4,2.95,6.68,7.43,inactive,4.44,6.32,,,,,,
COc1ccc2c(=O)c(-c3cc(OC)c(OC)cc3OC)coc2c1,,0.53,4.63,inactive,0.49,0.55,inactive,,,,,
COc1cc2c(cc1OC)[C@]1(O)C(=O)c3ccc4c(c3O[C@@H]1CO2)C[C@H](C(C)(C)O)O4,0.12,0.59,0.56,,0.73,3.67,,9.28,,,,
COc1ccc(-c2coc3c(OC)c(O)ccc3c2=O)cc1,,,,inactive,,,inactive,,inactive,inactive,inactive,inactive
COc1ccc(-c2coc3cc(O)c(OC)cc3c2=O)cc1,,,,inactive,,,inactive,,inactive,inactive,inactive,inactive
C=C(CO)[C@H]1Cc2c(ccc3c2O[C@@H]2COc4cc(OC)c(OC)cc4[C@@H]2C3=O)O1 [AMORPHIGENIN],< 0.01,0.04,0.03,,0.05,0.04,,0.05,,,,
COC1=CC(=O)[C@]2(C=C1OC)OC[C@H]1Oc3c(ccc4c3C=CC(C)(C)O4)C(=O)[C@H]12 [AMORPHISPIRONONE],,,,inactive,0.61,0.58,inactive,,,,inactive,inactive
C=C(CO)[C@H]1Cc2c(ccc3c2O[C@@H]2COc4cc(OC)c(OC)cc4[C@]2(O)C3=O)O1 [DABINOL],< 0.001,< 0.001,< 0.001,,< 0.001,< 0.001,,< 0.001,,,,
COc1cc2c(cc1OC)[C@@H]1C(=O)c3ccc4c(c3O[C@@H]1CO2)C[C@H](C(C)(C)O)O4 [DALPANOL],0.49,,0.48,,4.83,0.89,,0.86,,,inactive,
COc1cc2c(cc1OC)[C@]1(O)C(=O)c3ccc4c(c3O[C@@H]1CO2)C=CC(C)(C)O4 [TEPHROSIN],0.05,0.06,0.09,,0.07,0.36,,< 0.001,,,,
